From patent publication US20050288323A1, “Octahydro-indolizine and quinolizine and hexahydro-pyrrolizine” (priority 2000, published 2005)

The molecules below were run against T1, human histamine H3 receptor (Homo sapiens, UniProt Q9Y5N1) (assay: [3H]-N-methylhistamine binding). Conditions: Table 1; [3H]-N-methylhistamine binding.
T1 construct: One microgram of supercoiled H3 receptor cDNA was added to the cells and mixed; expressed in transfected cells; membranes
Experimental: Thus in the present invention receptor binding was determined using the human histamine H3 receptor (See Lovenberg et al Mol. Pharmacol. 1999, 1107). Screening using the human receptor is particularly important for the identification of new therapies for the treatment of human disease. Conventional binding assays for example are determined using rat synaptosomes (Garbarg et al J. Pharmacol. Exp. Ther. 1992, 263, 304), rat cortical membranes (West et al Mol. Pharmacol. 1990, 610), and guinea pig brain (Korte et al Biochem. Biophys. Res. Commun. 1990, 978). Only limited studies have been performed previously using human tissue but these allude to significant differences in the pharmacology of rodent and primate receptors (West et al Eur. J. Pharmacol. 1999, 233).
Transfection of Cells with Human Histamine Receptor
A 10 cm tissue culture dish with a confluent monolayer of SK-N-MC cells was split two days prior to transfection. Using sterile technique the media was removed and the cells were detached from the dish by the addition of trypsin. One fifth of the cells were then placed onto a new 10 cm dish. Cells were grown in a 37° C. incubator with 5% CO2 in Minimal Essential Media Eagle with 10% Fetal Bovine Serum. After two days cells were approximately 80% confluent. These were removed from the dish with trypsin and pelleted in a clinical centrifuge. The pellet was then re-suspended in 400 μL complete media and transferred to an electroporation cuvette with a 0.4 cm gap between the electrodes (Bio-Rad #165-2088). One microgram of supercoiled H3 receptor cDNA was added to the cells and mixed. The voltage for the electroporation was set at 0.25 kV, the capacitance was set at 960 μF. After electroporation the cells were diluted into 10 mL complete media and plated onto four 10 cm dishes. Because of the variability in the efficiency of electroporation, four different concentrations of cells were plated. The ratios used were; 1:20, 1:10, 1:5, with the remainder of the cells being added to the fourth dish. The cells were allowed to recover for 24 hours before adding the selection media (complete media with 600 μg/mL G418). After 10 days dishes were analyzed for surviving colonies of cells. Dishes with well isolated colonies were used. Cells from individual colonies were isolated and tested. SK-N-MC cells were used because they give efficient coupling for inhibition of adenylate cyclase. The clones that gave the most robust inhibition of adenylate cyclase in response to histamine were used for further study.
[^3H]-N-methylhistamine Binding
Cell pellets from histamine H3 receptor-expressing SK-N-MC cells were homogenized in 20 mM TrisHCl/0.5 mM EDTA. Supernatants from a 800 g spin were collected, recentrifuged at 30,000 g for 30 minutes. Pellets were re-homogenized in 50 mM Tris/5 mM EDTA (pH 7.4). Membranes were incubated with 0.8 nM [^3H]-N-methylhistamine plus/minus test compounds for 45 min at 25° C. and harvested by rapid filtration over GF/C glass fiber filters (pretreated with 0.3% polyethylenimine) followed by four washes with ice cold buffer. Filters were dried, added to 4 mL scintillation cocktail and then counted on a liquid scintillation counter. Non-specific binding was defined with 10 μM histamine. The pKi values were calculated based on a Kd of 800 pM and a ligand concentration ([L]) of 800 pM according to the formula: Ki=(IC50)/(1+([L]/(Kd))

T1 sequence (Q9Y5N1 whole entry): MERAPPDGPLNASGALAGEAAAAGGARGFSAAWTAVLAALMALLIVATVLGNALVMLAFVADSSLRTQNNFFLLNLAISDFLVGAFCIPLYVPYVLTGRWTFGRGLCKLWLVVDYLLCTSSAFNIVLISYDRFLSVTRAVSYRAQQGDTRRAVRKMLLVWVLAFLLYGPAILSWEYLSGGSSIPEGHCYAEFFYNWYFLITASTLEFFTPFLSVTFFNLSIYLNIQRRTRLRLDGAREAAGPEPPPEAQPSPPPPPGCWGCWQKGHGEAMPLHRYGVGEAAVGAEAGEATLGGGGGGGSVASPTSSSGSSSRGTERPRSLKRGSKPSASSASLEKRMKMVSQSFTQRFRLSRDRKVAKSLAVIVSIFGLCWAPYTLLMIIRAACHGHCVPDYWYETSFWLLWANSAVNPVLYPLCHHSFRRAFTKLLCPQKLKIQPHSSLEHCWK

Structure (SMILES) | Ki [nM]
c1ccc(Oc2ccc([C@@H]3CC[C@H]4CCCCN43)cc2)cc1 (racemic) [Example 12] | 600
c1cc([C@H]2CC[C@H]3CCCCN32)ccc1OCCN1CCCCC1 (racemic) [Example 16, 3-[4-(2-Piperidin-1-yl-ethoxy)-phenyl]-octahydro-indolizine] | 9

Same assay, conditions: Table 2; [3H]-N-methylhistamine binding

Structure (SMILES) | Ki [nM]
c1ccc(Sc2ccc([C@H]3CC[C@H]4CCCCN43)cc2)nc1 (racemic) [Example 28] | 205
c1cnc(Sc2ccc([C@H]3CC[C@H]4CCCCN43)cc2)nc1 (racemic) [Example 32] | 650
O=c1[nH]c(Sc2ccc([C@H]3CC[C@H]4CCCCN43)cc2)nc2ccccc12 (racemic) [Example 33] | 163

Same assay, conditions: Table 3; [3H]-N-methylhistamine binding

Structure (SMILES) | Ki [nM]
O=Cc1ccsc1-c1ccc([C@H]2CC[C@H]3CCCCN32)cc1 (racemic) [Example 51] | 132
O=Cc1ccc(-c2ccc([C@H]3CC[C@H]4CCCCN43)cc2)cc1 (racemic) [Example 52] | 221
Nc1cccc(-c2ccc([C@H]3CC[C@H]4CCCCN43)cc2)c1 (racemic) [Example 48] | 665

Same assay, conditions: Table 5; [3H]-N-methylhistamine binding

Structure (SMILES) | Ki [nM]
[O-][n+]1ccc(CNc2ccc([C@H]3CC[C@H]4CCCCN43)cc2)cc1 (racemic) [Example 133] | 4380

Same assay, conditions: [3H]-N-methylhistamine 0.8 nM, membranes of H3 receptor-expressing SK-N-MC cells

Structure (SMILES) | Ki [nM]
C(#CCN1CCCCC1)COc1ccc([C@H]2CC[C@H]3CCCCN32)cc1 (relative stereo) [Example 84, trans-3-[4-(3-Piperidinylmethylpropargyloxy)phenyl]octahydroindolizine] | 1.8
O=C(N1CCCCC1CCOc1ccc([C@H]2CC[C@H]3CCCCN32)cc1)C(F)(F)F (mixture of isomers) [Example 88, trans-3-{4-[2,2′-(N-Trifluoroacetylpiperidinyl)ethoxy]phenyl}octahydroindolizine] | 71
c1cc(OCCCN2CCCCC2)cc([C@H]2C[C@@H]3CCCCN3C2)c1 (racemic) [Example 72, anti-2-[3-(3-Piperidinylpropyloxy)phenyl]octahydroindolizine] | 0.3
O=S(=O)(CCN1CCCCC1)Nc1ccc([C@H]2CC[C@H]3CCCCN32)cc1 (racemic) [Example 120, trans-3-{4-[(2-Piperidylethyl)sulfonyl]amidophenyl}octahydroindolizine] | 11
C#Cc1ccc([C@H]2CC[C@H]3CCCCN32)cc1 (racemic) [Example 75, trans-3-(4-acetylenephenyl)octahydroindolizine] | 1100
c1cc([C@@H]2CC[C@@H]3CCCCN32)ccc1OCCCN1CCCCC1 [Example 94, (S, S)-3-(4-(3-Piperidinylpropoxy)phenyl)octahydroindolizine] | 0.06
c1cc([C@H]2CC3CCCCN3C2)ccc1OCCCN1CCCCC1 (mixture of isomers) [Example 68, anti-2-(4-(3-Piperidinylpropoxy)phenyl)octahydroindolizine] | 0.2
c1cc(C2CCC3CCCN32)ccc1OCCCN1CCCCC1 (centres unmarked) [Example 140, 3-[4-(Piperidinylpropoxy)phenyl]hexahydro-1H-pyrrolizine] | 0.6
CN(c1ccc([C@@H]2CC[C@@H]3CCCCN32)cc1)S(=O)(=O)C1CCCNC1 (relative stereo) [Example 118, trans-3-[4-(3-Piperidylsulfonyl-N-methylamino)phenyl]octahydroindolizine] | 61
CS(=O)(=O)N(c1cccc(COc2ccc([C@H]3CC[C@H]4CCCCN43)cc2)c1)S(C)(=O)=O (racemic) [Example 82, trans-3-[4-(3-bis-Methansulfonaminobenzyloxy)phenyl]octahydroindolizine] | 128
Nc1ccc(Sc2ccc([C@@H]3CCC[C@@H]4CCCN43)cc2)cc1 (racemic) [Example 39, 5-(4-(4-Aminophenylthio)phenyl)octahydroindolizine] | 75
c1cc(C2CC3CCCCN3C2)ccc1OCCCN1CCCCC1 (stereo not drawn) [Example 69, syn-2-[4-(3-Piperidinylpropanoxy)phenyl]octahydroindolizine] | 0.2
c1cc(Sc2ccc(C3CCC4CCCCN43)cc2)ccn1 (centres unmarked) [Example 136, Octahydro-3-[4-(4-pyridinylthio)phenyl]indolizine] | 7.5
O=C(CCCN1CCCCC1)Nc1ccc([C@@H]2CC[C@@H]3CCCCN32)cc1 (relative stereo) [Example 111, trans-3-[4-(N-4-Piperidylbutanamido)phenyl]octahydroindolizine] | 3
CS(=O)(=O)N(c1ccc([C@@H]2CC[C@@H]3CCCCN32)cc1)S(C)(=O)=O (relative stereo) [Example 98, trans-3-(4-(bis-Methylsulfonylamino)phenyl)octahydroindolizine] | 787
CC(C)(C)OC(=O)N1CCCCC1CCOc1ccc([C@H]2CC[C@H]3CCCCN32)cc1 (mixture of isomers) [Example 85, trans-3-{4-[2,2′-(1-tert-Butylcarboxylatepiperidinyl)ethoxy]phenyl}-octahydroindolizine] | 51
COc1ccccc1[C@H]1C[C@@H]2CCCCN2C1 (relative stereo) [Example 70, anti-2-(2-Methoxyphenyl)octahydroindolizine] | 792
FC(F)(F)CN1CCCCC1CCOc1ccc([C@H]2CC[C@H]3CCCCN32)cc1 (mixture of isomers) [Example 89, trans-3-{4-[2,2′-(N-Trifluoroethylpiperidinyl)ethoxy]phenyl}octahydroindolizine] | 47
c1cc([C@H]2CC[C@H]3CCCCN32)ccc1OCCN1CCCCC1 (racemic) [Example 16, 3-[4-(2-Piperidin-1-yl-ethoxy)-phenyl]-octahydro-indolizine] | 9.1
O=S(=O)(Nc1ccc([C@@H]2CC[C@@H]3CCCCN32)cc1)C1CCCNC1 (relative stereo) [Example 117, trans-3-[4-(3-Piperidylsulfonylamino)phenyl]octahydroindolizine] | 4
CS(=O)(=O)Nc1cccc(-c2ccc([C@H]3CC[C@H]4CCCCN43)cc2)c1 [Example 55, tran-3-[4-(3-Methylsulfonylaminophenyl)phenyl]octahydroindolizine] | 320
CN(C)c1ccc([C@@H]2CC[C@@H]3CCCCN32)cc1 (relative stereo) [Example 96, trans-3-(4-(N,N-Dimethylamino)phenyl)octahydroindolizine] | 380
c1cc(Sc2ccc([C@H]3CC[C@H]4CCCCN43)cc2)ccn1 [Example 137, (R, R)-Octahydro-3-[4-(4-pyridinylthio)phenyl]indolizine] | 3.8
O=C(CCN1CCCCC1)Nc1ccc([C@@H]2CC[C@@H]3CCCCN32)cc1 (relative stereo) [Example 105, trans-3-[4-(N-3-Piperidinylpropanamido)phenyl]octahydroindolizine] | 10
C[Si](C)(C)C#Cc1ccc([C@H]2CC[C@H]3CCCCN32)cc1 (racemic) [Example 74, trans-3-(4-trimethylsilylacetylenephenyl)octahydroindolizine] | 1500
c1cc([C@@H]2CCC[C@@H]3CCCN32)ccc1OCCCCCN1CCCCC1 [Example 65] | 1
Nc1ccc(Oc2ccc([C@H]3CC[C@H]4CCCCN43)cc2)cc1 (racemic) [Example 78, trans-3-[4-(4-Aminophenoxy)phenyl]octahydroindolizine] | 296
C=CC(=O)Nc1ccc([C@@H]2CC[C@@H]3CCCCN32)cc1 (relative stereo) [Example 107, N-[4-(trans-Octahydro-3-indolizinyl)phenyl]propenamide] | 327

Same assay, conditions: [3H]-N-methylhistamine binding; value printed under example heading without unit

Structure (SMILES) | Ki [nM]
O/N=C\c1ccsc1-c1ccc([C@H]2CC[C@H]3CCCCN32)cc1 (racemic) [Example 54, tran-3-[4-(3-hydroxyiminomethylthienyl)phenyl]octahydroindolizine] | 1480
